Data on 21 compounds can be found in US4820834A, “Benzodiazepine analogs” (priority 1987, dated 1989).

pIC50: −log10 of the molar value. Read-outs that look alike come from different tables or passages of the source. Bounds are passed on as bounds.

One assay deals with T1, CCK receptor (pancreas) (Rattus norvegicus, UniProt P30551).
T1 construct: The whole pancreas was dissected free of fat tissue and was homogenized; from tissue; host or cells: rat pancreas membranes (Sprague-Dawley)
T1 sequence (P30551 1-444): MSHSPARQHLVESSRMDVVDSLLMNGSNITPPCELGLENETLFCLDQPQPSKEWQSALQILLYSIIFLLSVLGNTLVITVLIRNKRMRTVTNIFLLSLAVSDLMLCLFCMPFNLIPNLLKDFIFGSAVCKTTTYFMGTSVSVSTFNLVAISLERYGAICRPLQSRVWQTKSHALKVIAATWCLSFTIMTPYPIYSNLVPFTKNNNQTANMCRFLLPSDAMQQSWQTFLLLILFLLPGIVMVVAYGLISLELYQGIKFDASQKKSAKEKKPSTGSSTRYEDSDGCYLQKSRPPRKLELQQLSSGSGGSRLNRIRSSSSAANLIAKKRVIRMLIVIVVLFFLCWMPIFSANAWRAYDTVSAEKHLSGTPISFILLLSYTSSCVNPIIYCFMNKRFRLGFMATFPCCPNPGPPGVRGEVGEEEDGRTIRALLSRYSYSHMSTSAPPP
The assay can be described thus: CCK Receptor Binding (Pancreas): inhibition of ^125 I-CCK-33 binding. More on the design: species or system Male Sprague-Dawley rats. The settings on record: rat pancreas membranes, ^125 I-CCK-33, 37° C., 30 minutes. A digest of the protocol:
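Rat (male Sprague-Dawley) pancreatic membranes in 50 mM Tris HCl pH 7.7 with DTT, bacitracin, PMSF and o-phenanthroline; ^125I-Bolton Hunter-labelled CCK-33 as radioligand. Incubation 30 min at 37° C, separation by centrifugation, pellet gamma-counted; Scatchard analysis by diluting ^125I-CCK-33 with increasing CCK-33.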

Assay [1] has as its target T2, Gastrin receptor (gastric glands) (Cavia porcellus, UniProt H0VZC5).
T2 construct: The washed guinea pig gastric glands prepared as above were resuspended; from tissue; host or cells: guinea pig gastric mucosal glands (male Hartley)
T2 sequence (H0VZC5 1-426): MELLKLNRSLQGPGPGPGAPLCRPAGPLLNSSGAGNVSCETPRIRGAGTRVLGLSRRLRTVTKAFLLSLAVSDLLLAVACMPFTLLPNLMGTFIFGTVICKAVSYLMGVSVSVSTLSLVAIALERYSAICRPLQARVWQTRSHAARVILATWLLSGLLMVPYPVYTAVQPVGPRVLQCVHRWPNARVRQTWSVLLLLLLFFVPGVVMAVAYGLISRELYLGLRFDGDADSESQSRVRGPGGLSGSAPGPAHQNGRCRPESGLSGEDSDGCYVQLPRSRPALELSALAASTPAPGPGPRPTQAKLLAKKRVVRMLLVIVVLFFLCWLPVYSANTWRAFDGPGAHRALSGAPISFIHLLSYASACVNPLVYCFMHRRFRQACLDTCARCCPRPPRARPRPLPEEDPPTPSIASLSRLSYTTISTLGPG
The assay can be described thus: Gastrin Receptor Binding in Guinea Pig Gastric Glands. The settings on record: 25° C., 30 minutes. Also noted: species or system guinea pig (male Hartley).

Assay [2] deals with T3, CCK receptor (brain, cerebral cortex) (Cavia porcellus, UniProt H0VZC5).
T3 construct: Cerebral cortex was dissected and used as a receptor source; from tissue; host or cells: guinea pig cerebral cortex membranes (male Hartley)
T3 sequence (H0VZC5 1-426): T2 sequence (H0VZC5 1-426)
Put plainly: biochemical. The format is binding, Male Hartley guinea pigs. The settings on record: guinea pig cerebral cortex, ^125 I-CCK-33, 25° C., 2 hours. A digest of the protocol: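 Guinea pig cerebral cortex homogenate as receptor source, with radiolabeled CCK-33 in HEPES buffer containing MgCl2, bacitracin, EGTA and 0.4% BSA. Incubation 2 h at 25°C; bound ligand pelleted by centrifugation and gamma-counted.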

The mark [3] stands for this setting: ^125 I-gastrin, read-out: IC50 ^125 I-Gastrin Gastric Glands.
The mark [4] stands for this setting: read-out: IC50 ^125 I-CCK Brain.
The mark [5] stands for this setting: read-out: IC50 ^125 I-CCK Pancreas.
Setting [6] is: IC50 ^125 I-Gastrin Gastric Glands.

With `CN1C(=O)C(C(O)c2cn(C)c3ccccc23)N=C(c2ccccc2)c2ccccc21` (racemic) [Example 50a, 1,3-Dihydro-3(RS)-[1-hydroxy-1-[3-(1-methylindolyl)]]-methyl-1-methyl-5-phenyl-2H-1,4-benzodiazepin-2-one], the pIC50 on CCK receptor (pancreas) (IC50 ^125 I-CCK Pancreas) was 4.82; in assay [1] (setting [3]) it was 5.92; in assay [2] (setting [4]) it was 5.59.
The corresponding values for `CN1C(=O)C(C(O)c2cn(C)c3ccccc23)N=C(c2ccccc2)c2ccccc21` (racemic) [Example 50b, 1,3-Dihydro-3(RS)-[1-hydroxy-1-[3-(1-methylindolyl)]]-methyl-1-methyl-5-phenyl-2H-1,4-benzodiazepin-2-one] are 4.00, 4.21 and 4.40.
The corresponding values for `CN1C(=O)C(C(O)c2ccccc2)N=C(c2ccccc2)c2ccccc21` (racemic) [Example 51, 1,3-Dihydro-3(RS)-(1-hydroxy-1-phenyl)methyl-1-methyl-5-phenyl-2H-1,4-benzodiazepin-2-one] are less than 4.00, 4.60 and 4.49.
The corresponding values for `CN1C(=O)C(C(O)c2cccs2)N=C(c2ccccc2)c2ccccc21` (racemic) [Example 52, 1,3-Dihydro-3(RS)-[1-hydroxy-1-(2-thienyl)]methyl-1-methyl-5-phenyl-2H-1,4-benzodiazepin-2-one] are less than 4.00, 4.59 and 4.48.
In the case of `CN1C(=O)C(O)(C(=O)c2ccsc2)N=C(c2ccccc2)c2ccccc21` (racemic) [Example 53a, 1,3-Dihydro-3-(RS)-hydroxy-1-methyl-5-phenyl-3-(3'-thienoyl)-2H-1,4-benzodiazepin-2-one], the pIC50 is 4.00 at CCK receptor (pancreas) (IC50 ^125 I-CCK Pancreas), 6.07 in assay [1] (setting [3]) and 5.38 in assay [2] (setting [4]).
For `CN1C(=O)C(C(=O)c2ccsc2)=NC(O)(c2ccccc2)c2ccccc21` (racemic) [Example 53b, 1,5-Dihydro-5-(RS)-hydroxy-1-methyl-5-phenyl-3-(3'-thienoyl)-2H-1,4-benzodiazepin-2-one], the values for the pIC50 (at CCK receptor (pancreas) (setting [5]); in assay [1] (setting [3]); in assay [2] (setting [4])) were 4.72, less than 4.00 and 4.00, respectively.
As to `O=C1Nc2ccccc2C(c2ccccc2)=NC1Cc1c[nH]c2ccc(Br)cc12` (racemic) [Example 57, 3(RS)-[3'-(5'-Bromoindolyl)methyl]-1,3-dihydro-5-phenyl-2H-1,4-benzodiazepin-2-one], the pIC50 on CCK receptor (pancreas) (IC50 ^125 I-CCK Pancreas) was 5.54; in assay [1] (setting [6]), 3.15; in assay [2] (IC50 ^125 I-CCK Brain), 4.00.
With `O=C(c1ccccc1F)c1ccccc1NC(=O)C(CN1C(=O)c2ccccc2C1=O)N1C(=O)c2ccccc2C1=O` (racemic) [Example 62, 2-N-[2(RS)-3-diphthalylaminopropanoyl]amino-2'-fluorobenzophenone], the pIC50 on CCK receptor (pancreas) (setting [5]) was less than 4.00; in assay [1] (setting [3]), less than 3.00; in assay [2] (setting [4]) it was less than 4.00.
In the case of `NCC1N=C(c2ccccc2F)c2ccccc2NC1=O` (racemic) [Example 63, 1,3-Dihydro-5-(2'-fluorophenyl)-3(RS)-aminomethyl-2H-1,4-benzodiazepin-2-on], the pIC50 at CCK receptor (pancreas) (IC50 ^125 I-CCK Pancreas) is less than 4.00; in assay [1] (setting [6]), less than 3.00; in assay [2] (IC50 ^125 I-CCK Brain) it was less than 4.00.
As for `O=C1Nc2ccccc2C(c2ccccc2F)=NC1CNc1cncc(Cl)n1` (racemic) [Example 70, 1,3-Dihydro-5-(2'-fluorophenyl)-3-(RS)-(6'-chloropyrazin-2yl)aminomethyl-2H-4-benzodiazepin-2-one], the pIC50 on CCK receptor (pancreas) (IC50 ^125 I-CCK Pancreas) is 4.82; in assay [1] (setting [3]), 3.70; in assay [2] (setting [4]) it was 4.00.
With `O=C(OC1N=C(c2ccccc2)c2ccccc2NC1=O)c1cc2ccccc2[nH]1` (racemic) [Example 107, 1,3-Dihydro-3-(RS)-(2-indolecarbonyloxy)-5-phenyl-2H-1,4-benzodiazepin-2-one], the pIC50 is 7.31 on CCK receptor (pancreas) (IC50 ^125 I-CCK Pancreas), less than 5.00 in assay [1] (setting [6]) and 4.30 in assay [2] (IC50 ^125 I-CCK Brain).
The corresponding values for `O=C(NC1N=C(c2ccccc2F)c2ccccc2NC1=O)c1ccc(Cl)cc1` (racemic) [Example 111, 1,3-Dihydro-3-(RS)-(4-chlorophenylcarbonyl)amino-5-(2-fluorophenyl)-2H-1,4-benzodiazepin-2-one] are 8.15, 5.08 and 4.40.
Regarding `Cc1ccc(S(=O)(=O)NC2N=C(c3ccccc3F)c3ccccc3NC2=O)cc1` (racemic) [Example 112, 1,3-Dihydro-3-(RS)-(4-methylphenylsulfonyl)amino-5-(2-fluorophenyl)-2H-1,4-benzodiazepin-2-one], the values for the pIC50 (at CCK receptor (pancreas) (IC50 ^125 I-CCK Pancreas); in assay [1] (setting [3]); in assay [2] (setting [4])) were 4.62, less than 5.00 and less than 4.30, respectively.
In the case of `CC1=C(C(=O)NC2N=C(c3ccccc3F)c3ccccc3NC2=O)Cc2ccccc21` (racemic) [Example 115, 1,3-Dihydro-3-(RS)-(3'-methylindenyl-2-carbonyl)amino-5-(2-fluorophenyl)-2H-1,4-benzodiazepin-2-one], the figures for the pIC50 (on CCK receptor (pancreas) (IC50 ^125 I-CCK Pancreas); in assay [1] (setting [3]); in assay [2] (setting [4])) were 7.66, less than 5.00 and 5.46, respectively.
On to `O=C(NC1N=C(c2ccccc2F)c2ccccc2NC1=O)c1ccc2ccccc2n1` (racemic) [Example 116], for which the negative-log IC50 (pIC50) on CCK receptor (pancreas) (IC50 ^125 I-CCK Pancreas) is 6.52; in assay [1] (setting [3]), less than 5.00; in assay [2] (setting [4]), 4.10.
Take `O=C1Nc2ccccc2C(c2ccccc2F)=NC1NCc1cc2ccccc2[nH]1` (racemic) [Example 124, 1,3-Dihydro-5-(2-fluorophenyl)-3-(RS)-(2-indolylmethyl-amino)-2H-1,4-benzodiazepin-2-one]: the pIC50 at CCK receptor (pancreas) (IC50 ^125 I-CCK Pancreas) was 6.60; in assay [1] (setting [6]), less than 5.00; in assay [2] (IC50 ^125 I-CCK Brain), 4.00.
With `O=C(CNc1ccccc1)NC1N=C(c2ccccc2F)c2ccccc2NC1=O` (racemic) [Example 125, 1,3-Dihydro-3-(RS)-(phenylaminomethylcarbonyl)amino-5-(2-fluorophenyl)-2H-1,4-benzodiazepin-2-one], the pIC50 on CCK receptor (pancreas) (IC50 ^125 I-CCK Pancreas) is 6.05; in assay [1] (setting [6]), less than 5.00; in assay [2] (IC50 ^125 I-CCK Brain), 4.00.
For `N#Cc1ccc(C(=O)NC2N=C(c3ccccc3)c3ccccc3NC2=O)cc1` (racemic) [Example 149, 3-(RS)-(4'-Cyanobenzoylamino)1,3-dihydro-5-phenyl-2H-1,4-benzodiazepin-2-one] the same measures were 6.14, 4.66 and less than 4.00.
Regarding `O=C(NC1N=C(c2ccccc2F)c2ccccc2NC1=O)OCc1ccccc1` (racemic) [Example 175, 1,3-Dihydro-5-(2-fluorophenyl)-3(RS)-benzyloxycarbonylamino-2H-1,4-benzodiazepin-2-one], the figures for the pIC50 (on CCK receptor (pancreas) (IC50 ^125 I-CCK Pancreas); in assay [1] (setting [3]); in assay [2] (setting [4])) were 6.15, 5.10 and 4.82, respectively.
Turning to `O=C(NC1N=C(c2ccccc2F)c2ccccc2NC1=S)OCc1ccccc1` (racemic) [Example 176, 1,3-Dihydro-5-(2-fluorophenyl)-3-(RS)-benzyloxycarbonylamino-2H-1,4-benzodiazeoin-2-thione], the negative logarithm of the IC50 (pIC50) at CCK receptor (pancreas) (IC50 ^125 I-CCK Pancreas) was 6.00; in assay [1] (setting [6]), 5.49; in assay [2] (IC50 ^125 I-CCK Brain), 5.00.
For the compound `O=C(OC1N=C(c2ccccc2F)c2ccccc2N(C(=O)c2ccc(Cl)cc2)C1=O)c1ccc(Cl)cc1` (racemic) [Example 178, 1-(4-Chlorophenyl)carbonyl-1,3-dihydro-5-(2-fluorophenyl)-3(RS)-(4-chlorophenyl)carbonyloxy-2H-1,4-benzodiazepin-2-one], the pIC50 on CCK receptor (pancreas) (IC50 ^125 I-CCK Pancreas) is 5.31; in assay [1] (setting [3]), less than 4.00; in assay [2] (setting [4]) it was less than 4.00.
